Measurements taken from patent US20240217966A1, “PHARMACEUTICAL COMPOSITION CONTAINING GLP-1 RECEPTOR AGONIST HAVING FUSED RING” (Shionogi & Co., Ltd., priority 2021, published 2024).
Read-outs that look alike come from different tables or passages of the source.

Target: T1, Human GLP-1 receptor (Homo sapiens, UniProt P43220)
T1 construct: expressed in transfected cells
Experiment: Measurement of GLP-1 receptor agonist activity (cAMP assay)
Format: cell-based
Procedure, shortened: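 hGLP-1R/CHO-K1 cells in HBSS with 0.1% BSA, 20 mM HEPES, 0.1 mM IBMX and 0.2 mM RO20-1724 exposed to compound plus forskolin (400 μM stock) for 1 h at 37 °C. Intracellular cAMP read by HTRF (cAMP-d2/anti-cAMP cryptate, 1 h at room temperature).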

[1] = CHO-K1, hGLP-1R/CHO-K1 cells, cAMP, 100% = human GLP-1 (7-36) at 2 nM, 0% = DMSO only, read-out: Emax(%)
[2] = hGLP-1R/CHO-K1 cells, cAMP increase, 37° C. 1 hour
[3] = CHO-K1, maximum effect, cAMP increase in GLP-1 R/CHO-K1 cells, 2 nM human GLP-1 (7-36) = 100%, DMSO only = 0%, read-out: Emax
[4] = cAMP increase in GLP-1 R/CHO-K1 cells, 2 nM human GLP-1 (7-36) = 100%, DMSO only = 0%

T1 sequence (P43220 24-463): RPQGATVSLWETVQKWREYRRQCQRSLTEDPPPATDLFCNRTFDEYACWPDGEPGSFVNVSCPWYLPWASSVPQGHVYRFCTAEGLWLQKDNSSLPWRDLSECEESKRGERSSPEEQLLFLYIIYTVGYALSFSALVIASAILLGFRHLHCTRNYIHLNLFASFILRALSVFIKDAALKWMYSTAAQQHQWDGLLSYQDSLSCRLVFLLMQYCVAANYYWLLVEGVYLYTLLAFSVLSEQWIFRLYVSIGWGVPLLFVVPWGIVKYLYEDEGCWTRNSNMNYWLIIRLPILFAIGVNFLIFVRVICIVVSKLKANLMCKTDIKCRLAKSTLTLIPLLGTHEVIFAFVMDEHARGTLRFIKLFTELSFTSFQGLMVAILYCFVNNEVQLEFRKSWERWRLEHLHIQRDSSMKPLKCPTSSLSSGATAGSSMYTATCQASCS

Emax [1] | EC50 [2] | Emax [3] | EC50 [4] | SMILES
105% | 0.881 nM | – | – | Cc1c(Cc2nc3ccc(C(=O)O)cc3n2C[C@@H]2CCO2)ccc2nc(C(F)(F)F)c(OCc3ccc(Cl)cc3F)nc12 [Compound I-132]
108% | 1.59 nM | – | – | O=C(O)c1ccc2nc(Cc3ccc4nc(C(F)(F)F)c(OCc5ccc(Cl)cc5F)nc4c3)n(C[C@@H]3CCO3)c2c1 [Compound I-076]
109% | 1.08 nM | – | – | COc1ccc(COc2cc3c(cc2C(F)(F)F)CCN(Cc2nc4ccc(C(=O)O)c(F)c4n2C[C@@H]2CCO2)[C@H]3C)cc1 [Compound I-190]
84.3% | – | – | – | N#Cc1cc2c(cc1OCc1ccc(Cl)cc1F)CN(Cc1nc3ccc(C(=O)O)cc3n1C[C@@H]1CCO1)CC2 [Compound I-008]
– | – | 108% | 0.0497 nM | C[C@H]1c2nc(OCc3ccc(Cl)cc3F)c(C(F)F)cc2CCN1Cc1nc2ccc(C(=O)O)cc2n1C[C@@H]1CCO1 [Compound I-394]
– | – | 90.3% | 1.63 nM | C[C@H]1c2cc(OCc3ccc(Cl)cn3)c(Cl)cc2CCN1Cc1nc2ccc(C(=O)O)c(F)c2n1C[C@@H]1CCO1 [Compound I-320]
108% | 8.33 nM | – | – | Cc1cc(C(=O)O)cc2c1nc(CN1CCc3cc(C(F)(F)F)c(OCc4ccc(Cl)cc4F)cc3C1)n2C[C@@H]1CCO1 [Compound I-108]
– | – | 117% | 0.223 nM | COc1cc(C(=O)O)cc2c1nc(CN1CCc3cc(C(F)(F)F)c(OCc4ccc(Cl)cc4Cl)cc3[C@@H]1C)n2C[C@@H]1CCO1 [Compound I-232]
115% | 0.73 nM | – | – | C[C@H]1c2cc(OCc3ccc(Cl)cc3)c(C(F)(F)F)cc2CCN1Cc1nc2ccc(C(=O)O)c(F)c2n1C[C@@H]1CCO1 [Compound I-193]
– | – | 123% | 0.0394 nM | C[C@H]1c2nc(OCc3ccc(Cl)cc3Cl)c(C(F)(F)F)cc2CCN1Cc1nc2c(F)cc(C(=O)O)cc2n1C[C@@H]1CCO1 [Compound I-244]
– | – | 89% | 3.51 nM | C[C@H]1c2cc(OCc3ccccc3Cl)c(Cl)cc2CCN1Cc1nc2ccc(C(=O)O)c(F)c2n1C[C@@H]1CCO1 [Compound I-322]
102% | 0.707 nM | – | – | C[C@H]1c2cc(OCc3ccc(Cl)cc3Cl)c(C(F)(F)F)cc2CCN1Cc1nc2ccc(C(=O)O)cc2n1C[C@@H]1CCO1 [Compound I-167]
– | – | 87.3% | 1.73 nM | C[C@H]1c2cc(OCc3c(F)cc(F)cc3F)c(Cl)cc2CCN1Cc1nc2ccc(C(=O)O)c(F)c2n1C[C@@H]1CCO1 [Compound I-328]
86% | 4.56 nM | – | – | O=C(O)c1ccc2nc(CN3CCc4cc(C(F)(F)F)c(OCc5ccc(Cl)cc5F)cc4C3)n(C[C@@H]3CCO3)c2c1 [Compound I-023]
102% | 45.2 nM | – | – | N#CCC1(Cn2c(CN3CCc4cc(C(F)(F)F)c(OCc5ccc(Cl)cc5F)cc4C3)nc3ccc(C(=O)O)cc32)CC1 [Compound I-041]
– | – | 133% | 0.0408 nM | C[C@H]1c2nc(OCc3c(F)cc(Cl)cc3F)c(C(F)(F)F)cc2CCN1Cc1nc2ccc(C(=O)O)c(F)c2n1C[C@@H]1CCO1 [Compound I-362]
– | – | 106% | 2.41 nM | COc1cc(C(=O)O)cc2c1nc(CN1CCc3cc(C(F)(F)F)c(OCc4ccc(C5CC5)cc4)cc3[C@@H]1C)n2C[C@@H]1CCO1 [Compound I-228]
126% | 2.51 nM | – | – | C[C@H]1c2cc(OCc3ccc(C#N)cc3)c(C(F)(F)F)cc2CCN1Cc1nc2ccc(C(=O)O)cc2n1C[C@@H]1CCO1 [Compound I-111]
91% | 8.92 nM | – | – | O=C(O)c1ccc2nc(CN3CCc4cc(C(F)(F)F)c(OCc5ccc(Cl)cc5F)cc4C3=O)n(C[C@@H]3CCO3)c2n1 [Compound I-031]
119% | 23.4 nM | – | – | Cc1cc(COc2cc3c(cc2C(F)(F)F)CCN(Cc2nc4ccc(C(=O)O)cc4n2C[C@@H]2CCO2)C3)no1 [Compound I-070]
81.3% | 74.3 nM | – | – | Cc1cc2c(cc1OCc1ccc(C(F)(F)F)cn1)CN(Cc1nc3ccc(C(=O)O)cc3n1C[C@@H]1CCO1)CC2 [Compound I-015]
– | – | 107% | 0.046 nM | COc1cc(C(=O)O)cc2c1nc(CN1CCc3cc(C(F)(F)F)c(OCc4ccc(Cl)cc4F)nc3C1)n2C[C@@H]1CCO1 [Compound I-390]
– | – | 91.3% | 4.55 nM | COc1ccc(COc2cc3c(cc2Cl)CCN(Cc2nc4ccc(C(=O)O)c(F)c4n2C[C@@H]2CCO2)[C@H]3C)cc1 [Compound I-318]
107% | 3.09 nM | – | – | Cc1csc(COc2cc3c(cc2C(F)(F)F)CCN(Cc2nc4ccc(C(=O)O)nc4n2C[C@@H]2CCO2)[C@H]3C)n1 [Compound I-177]
75% | 47.5 nM | – | – | Cc1cc2c(cc1OCc1ccc(Cl)cc1F)CN(Cc1nc3ccc(C(=O)O)cc3n1C[C@@H]1CCO1)CC2 [Compound I-001]

Emax [1] | EC50 [2] | Emax [3] | EC50 [4] | SMILES
– | – | 105% | 1.27 nM | C[C@H]1c2cc(OCc3ccc(Cl)cc3F)c(C(F)F)cc2CCN1Cc1nc2ccc(C(=O)O)cc2n1C[C@@H]1CCO1 [Compound I-261]
– | – | 114% | 0.223 nM | COc1cc(Cl)ccc1COc1cc2c(cc1Cl)CCN(Cc1nc3c(F)cc(C(=O)O)cc3n1C[C@@H]1CCO1)[C@H]2C [Compound I-334]
– | – | 111% | 0.0556 nM | C[C@H]1c2nc(OCc3ccc(Cl)cc3Cl)c(C(F)(F)F)cc2CCN1Cc1nc2ccc(C(=O)O)c(F)c2n1C[C@@H]1CCO1 [Compound I-243]
– | – | 100% | 0.466 nM | C[C@H]1c2cc(OCc3ccc(Cl)cc3F)c(Cl)cc2CCN1Cc1nc2ccc(C(=O)O)c(F)c2n1C[C@@H]1CCO1 [Compound I-324]
102% | 1.71 nM | – | – | C[C@H]1c2cc(OCc3c(F)cc(F)cc3F)c(C(F)(F)F)cc2CCN1Cc1nc2ccc(C(=O)O)cc2n1C[C@@H]1CCO1 [Compound I-124]
– | – | 114% | 0.00918 nM | COc1cc(C(=O)O)cc2c1nc(CN1CCc3cc(C(F)(F)F)c(OCc4ccc(F)cc4F)nc3[C@@H]1C)n2C[C@@H]1CCO1 [Compound I-282]
– | – | 119% | 0.016 nM | COc1cc(C(=O)O)cc2c1nc(CN1CCc3cc(C(F)(F)F)c(OCc4ccc(F)cc4)nc3[C@@H]1C)n2C[C@@H]1CCO1 [Compound I-284]
– | – | 109% | 1.31 nM | C[C@H]1c2cc(OCc3cc(F)c(Cl)cc3F)c(Cl)cc2CCN1Cc1nc2ccc(C(=O)O)c(F)c2n1C[C@@H]1CCO1 [Compound I-326]
– | – | 125% | 0.159 nM | COc1cc(Cl)ccc1COc1nc2c(cc1C(F)(F)F)CCN(Cc1nc3c(F)cc(C(=O)O)cc3n1C[C@@H]1CCO1)C2 [Compound I-382]
97.7% | 38.4 nM | – | – | O=C(O)c1ccc2nc(CN3CCc4cc(C(F)(F)F)c(OCc5ccccc5F)cc4C3)n(C[C@@H]3CCO3)c2c1 [Compound I-154]
106% | 6.6 nM | – | – | O=C(O)c1ccc2nc(CN3CCc4cc(C(F)(F)F)c(OCc5ccccc5Cl)cc4C3)n(C[C@@H]3CCO3)c2c1 [Compound I-090]
– | – | 98% | 1.23 nM | C[C@H]1c2cc(OCc3ccc(F)cc3F)c(Cl)cc2CCN1Cc1nc2c(F)cc(C(=O)O)cc2n1C[C@@H]1CCO1 [Compound I-335]
110% | 6.04 nM | – | – | O=C(O)c1ccc2nc(CN3CCc4cc(C(F)(F)F)c(OCc5ccc(C(F)F)cc5F)cc4C3)n(C[C@@H]3CCO3)c2c1 [Compound I-056]
103% | 2.34 nM | – | – | O=C(O)c1ccc2nc(CN3CCc4cc(C(F)(F)F)c(OCc5c(F)cc(OC(F)F)cc5F)cc4C3)n(C[C@@H]3CCO3)c2c1 [Compound I-217]
– | – | 112% | – | N#Cc1ccc(COc2nc3c(cc2C(F)(F)F)CCN(Cc2nc4ccc(C(=O)O)c(F)c4n2C[C@@H]2CCO2)C3)c(F)c1 [Compound I-300]
93.7% | 124 nM | – | – | O=C(O)c1ccc2nc(CN3CCc4cc(C(F)(F)F)c(OCc5ccn(CC(F)(F)F)n5)cc4C3)n(C[C@@H]3CCO3)c2c1 [Compound I-151]
113% | 5.6 nM | – | – | N#Cc1ccc(COc2cc3c(cc2C(F)(F)F)CCN(Cc2nc4ccc(C(=O)O)cc4n2C[C@@H]2CCO2)C3)cc1 [Compound I-103]
105% | 2.42 nM | – | – | O=C(O)c1ccc2nc(CN3CCc4cc(C(F)(F)F)c(OCc5ccc(F)cc5Cl)cc4C3)n(C[C@@H]3CCO3)c2c1 [Compound I-097]
– | – | 112% | 0.0877 nM | COc1cc(C(=O)O)cc2c1nc(CN1CCc3cc(C(F)(F)F)c(OCc4ccc(Cl)cc4)nc3C1)n2C[C@@H]1CCO1 [Compound I-386]
97% | 1.22 nM | – | – | C[C@H]1c2cc(OCc3ccc(F)cc3)c(C(F)(F)F)cc2CCN1Cc1nc2ccc(C(=O)O)c(F)c2n1C[C@@H]1CCO1 [Compound I-122]
103% | 8.62 nM | – | – | O=C(O)c1ccc2nc(CN3CCc4cc(C(F)(F)F)c(OCc5c(F)cc(C(F)F)cc5F)cc4C3)n(C[C@@H]3CCO3)c2c1 [Compound I-216]
– | – | 112% | 0.0526 nM | C[C@H]1c2nc(OCc3ccc(F)cc3F)c(C(F)(F)F)cc2CCN1Cc1nc2c(F)cc(C(=O)O)cc2n1C[C@@H]1CCO1 [Compound I-369]
128% | 1.17 nM | – | – | C[C@H]1c2cc(OCc3ccc(F)cc3F)c(C(F)(F)F)cc2CCN1Cc1nc2ccc(C(=O)O)c(F)c2n1C[C@@H]1CCO1 [Compound I-198]
– | – | 97.7% | – | O=C(O)c1ccc2nc(CN3CCc4cc(C(F)(F)F)c(OCc5ccc(Cl)cc5)nc4C3)n(C[C@@H]3CCO3)c2c1F [Compound I-294]
106% | 17.9 nM | – | – | CS(=O)(=O)c1ccc(COc2cc3c(cc2C(F)(F)F)CCN(Cc2nc4ccc(C(=O)O)cc4n2C[C@@H]2CCO2)C3)cc1 [Compound I-086]
